Non-standard residues stand in square brackets, D forms with d. Residues, ends and D or L forms follow the SMILES beside them. Nspe = C[C@H](NCC(=O)O)c1ccccc1; Nlys = NCCCCNCC(=O)O
Columns and labels:
human red blood cells = conditions: concentration causing 10% hemolysis of human red blood cells; cited from earlier work
Source text: Table 2 Peptoid Cytotoxicity in cancer cell lines and control cells. | column: HC10 (µM) ** || The chain length is believed to influence not only the activity but also modes of action of cationic, amphipathic peptides, [34]. […] Thus we limited the chain length of peptoids to 13 residues at most, and studied 1 9mer which has the same charge-to-length ratio (CTLR) as peptoid ...

MCF-7 cells [1] = test: LDH leakage assay (plasma membrane integrity); type: cell-based, human; conditions: 50 µM, LDH leakage caused by cell lysis solution as the 100% control, measured immediately after treatment
Protocol: This assay is used to measure the membrane integrity as a function of the amount of cytoplasmic LDH (lactic dehydrogenase) released into the medium. Experiments were carried out according to the protocol of the In Vitro Toxicology Assay Kit, Lactic Dehydrogenase (LDH) based (Sigma-Aldrich). Briefly, cells were plated as described before, and peptoids were diluted similarly but in culturing media without phenol red to reduce background signal. After peptoid treatments, media supernatant were collected and centrifuged to remove any cell debris, and analyzed for LDH activity in a 96-well plate using the kit, absorbance at 490 nm and 690 nm measured using a microplate reader. All the following absorbance difference = A 490nm –A 690nm. Percentage of LDH leakage = (A -A testblank)/(A lysis -A blank)×100, where A is the average absorbance difference of the test wells and A lysis the average absorbance difference of wells with cells treated with cell lysis solution provided by the kit for 45 min. A testblank (media, diluted peptoids and LDH measuring reagents) and A blank (media and LDH measuring reagents) were background absorbance differences measured in the absence of cells.
These anticancer peptoids exert fast killing in cancer cells and are not affected by the multidrug resistance. […] The LDH assay measures membrane damage by quantifying the leakage of the cytoplasmic enzyme LDH. […]

MCF-7 cells [2] = test: Apoptotic DNA ladder assay; type: cell-based, human; conditions: 24 h treatment
MCF-7 (breast cancer) = test: MTS cell viability assay, MCF-7; type: cell-based; conditions: 72 h
Protocol: MCF-7, MCF-7/TxT50 and OVCAR-3 (available in ATCC) were kindly provided by Professor Branimir Sikic's lab at Stanford University, and were cultured in McCoy's 5A media (GIBCO) with 10% FBS and antibiotics. Primary dermal fibroblasts were gifts from Lifeline Cell Technology and were cultured <6 passages according to the protocol Lifeline provides. All the cells were cultured in cell incubators (Thermo Scientific) at 37°C with 5% CO2.
This assay is a colorimetric method for determining the number of viable cells in proliferation. Aliquots of 100 µl media containing 1×10^4 cells were distributed into each well of a 96-well plate (BD Falcon). The following day, when cell density reaches about ∼40% confluency, the cell media were removed and replaced with serial dilutions of peptoid stocks in culturing media. For peptoid dilutions, peptoid stocks were initially diluted in media at 100 µM and then diluted by half in series using a multichannel pipette, and maintained in 100 µl media for each concentration with triple repeats. After peptoid solutions were transferred onto cells in 96-well plates, cells were incubated at 37°C for certain time periods. Then 20 µl of the CellTiter 96 Aqueous Non-Radioactive cell proliferation assay (Promega) reagent which contains a tetrazolium compound, [3-(4,5-dimethylthiazol-2-yl)-5-(3-carboxymethoxyphenyl)-2-(4-sulfophenyl)-2H-tetrazolium, inner salt; MTS(a)], was added to each well and cells were further incubated for 2 h to metabolize. The absorbance of formazan products were measured at 490 nm in a microplate reader (Molecular Devices). Percentage of cell viability = (A -A testblank)/(A control -A blank)×100, where A is the absorbance of the test well and A control the average absorbance of wells with cells not treated with peptoids. A testblank (media, MTS, and diluted peptoids) and A blank (media and MTS) were background absorbances measured in the absence of cells.
The activity and selectivity of these peptoids against cancer cells were evaluated in vitro. Their cytotoxicity was tested in three cancer cell lines, MCF-7 (human breast cancer), LNCaP (human prostate cancer), and OVCAR-3 (human ovarian cancer). To estimate the selectivity of these peptoids in vitro, hemolytic activities of some peptoids were cited from previously published work (Table 2 **column), and the MRC-5 cell line (human fibroblasts derived from fetal lung tissues) and primary dermal fibroblasts were also tested as normal cell controls. Briefly, cells were treated with peptoids diluted in culturing media for certain time periods, and then cell viability was measured via MTS assays.

C[C@@H](c1ccccc1)N(CC(N)=O)C(=O)CN(C(=O)CN(CCCCN)C(=O)CN(C(=O)CN(C(=O)CN(CCCCN)C(=O)CN(C(=O)CN(C(=O)CN(CCCCN)C(=O)CN(C(=O)CN(C(=O)CNCCCCN)[C@@H](C)c1ccccc1)[C@@H](C)c1ccccc1)[C@@H](C)c1ccccc1)[C@@H](C)c1ccccc1)[C@@H](C)c1ccccc1)[C@@H](C)c1ccccc1)[C@@H](C)c1ccccc1 [Peptoid 1, H-(NLys-Nspe-Nspe)4-NH2] (H-[Nlys][Nspe][Nspe][Nlys][Nspe][Nspe][Nlys][Nspe][Nspe][Nlys][Nspe][Nspe]-NH2)
HC10 (human red blood cells): 21 µM
LDH (enzyme) leakage (MCF-7 cells [1]): ~50%
typical apoptotic DNA ladders (MCF-7 cells [2]): not observed
LC50 MCF-7 (breast cancer) (MCF-7 (breast cancer)): 5 µM

From paper PMC3938723, “Learning from Host-Defense Peptides: Cationic, Amphipathic Peptoids with Potent Anticancer Activity” (PLoS ONE, 2014)
